This is an account of results in publication PMC10193894 (Journal of Enzyme Inhibition and Medicinal Chemistry, 2023).

“Also recorded” adds a separate entry of the source. Like-named read-outs stand apart in the source and are kept apart here. Ends that are not written are not given here. A value given as a limit tells only on which side of the number the result lay.

The target in one test is SARS-CoV-2 S-RBD (Severe acute respiratory syndrome coronavirus 2, UniProt P0DTC2). The test is described as follows: biochemical. The format is binding.
The target in test [1] is T1, NRP1-BD (the b1 domain of NRP1) (Homo sapiens, UniProt O14786).
T1 construct: NRP1-BD (the b1 domain of NRP1); purchased Abcam (Cambridge, MA, USA)
T1 sequence (O14786 275-424 limits assumed): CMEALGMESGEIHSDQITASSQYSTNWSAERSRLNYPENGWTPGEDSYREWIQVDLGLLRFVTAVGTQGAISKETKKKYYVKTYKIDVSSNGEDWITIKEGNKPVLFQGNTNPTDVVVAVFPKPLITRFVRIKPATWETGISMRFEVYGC
The test is described as follows: Microscale thermophoresis (MST) binding to NRP1-BD. The following applies: mean ± SD (n = 3). On the technique in general: Microscale thermophoresis detects binding through changes in fluorescence in a small temperature gradient.

The subject of another test is SARS-CoV-2 pseudovirus. Particulars: for inhibition rate on pseudotyped SARS-CoV-2 infection: 3.2 µM.
Where [2] appears, read: read-out: EC50 against pseudotyped SARS-CoV-2 infection.

What is called Kd is the constant that tells how readily two partners part at equilibrium. For orientation: EC50 means the concentration at which the effect is half-maximal. Consider `NC(N)=NCCC[C@H](NC(=O)c1sccc1NS(=O)(=O)c1cccc2nsnc12)C(=O)O` [EG00229], for which the “S-RBD Kd” value at SARS-CoV-2 S-RBD is “no binding; also recorded: without binding”. In test [1] (value in μM), this compound returned a Kd of 4.9 ± 0.7 µM. The “inhibition rate on pseudotyped SARS-CoV-2 infection” value with SARS-CoV-2 pseudovirus amounted to 15%. Moreover, the half-maximal effective concentration (EC50) with SARS-CoV-2 pseudovirus (setting [2]) is > 20000 nM.

Take `C[C@@]1(C(=O)O)CC[C@]2(C)CC[C@]3(C)C4=CC(=O)c5c(cc(O)c(O)c5C=O)[C@]4(C)CC[C@@]3(C)[C@@H]2C1` [T-96, demethylzeylasteral]: at SARS-CoV-2 S-RBD (read-out: S-RBD Kd), the Kd came to 998.6 ± 8.4 nM. Further, the “NRP1-BD Kd” value in test [1] is “no binding; also recorded: without binding”. For the same compound, the “inhibition rate on pseudotyped SARS-CoV-2 infection” value with SARS-CoV-2 pseudovirus was “about 40%”. In the test with SARS-CoV-2 pseudovirus (setting [2]), the EC50 stood at 5420 nM.

Consider “Ac-EARTFLDKYNHEAEDLYYQSSLASWGSPRRAR [RN-4]”, for which, on SARS-CoV-2 S-RBD, binding was characterised by a dissociation constant (Kd) of 7.4 ± 0.5 nM. Besides, the 50% effective concentration (EC50) in the test on SARS-CoV-2 pseudovirus (pseudovirus, 48 h) turned out to be 390 ± 90 nM.

On SARS-CoV-2 S-RBD, “Ac-EKSTLKDRFNHEAQDLKYQDSLASYRGKRPPR [RN-2]” showed a dissociation constant (Kd) of 65.3 ± 2.2 nM. This compound registered an EC50 with SARS-CoV-2 pseudovirus (pseudovirus, 48 h) of 2370 ± 420 nM.

At SARS-CoV-2 S-RBD, “Ac-ETQVLLDKLNHEAEDLKYQSALASHRVRRPPR [RN-5]” showed a Kd of 207 ± 4.5 nM. The compound further registered an EC50 in the test on SARS-CoV-2 pseudovirus (pseudovirus, 48 h) of 3720 ± 890 nM.

As to “Ac-QNKVYIDKYNHEAQDLFYQSALKAHRGNRRAR [RN-1]”, the Kd at SARS-CoV-2 S-RBD came out at 19.9 ± 1.4 nM. The same compound registered an EC50 in the test on SARS-CoV-2 pseudovirus (pseudovirus, 48 h) of 1980 ± 370 nM.

Regarding “Ac-QRNIYLDRHNHEAEDLKYQTALASFRPAKPAR [RN-3]”, at SARS-CoV-2 S-RBD, the Kd was 95.3 ± 2.9 nM. In the test with SARS-CoV-2 pseudovirus (pseudovirus, 48 h), this compound yielded an EC50 of 2870 ± 180 nM.
